The record followed here is patent publication US11207312B2, “Metallo-beta-lactamase inhibitors and methods of use thereof” (priority 2017, dated 2021).

pIC50: −log10 of the molar value.

In one data set the target is NDM-1 (Klebsiella pneumoniae, UniProt C7C422). Nature of the data set: biochemical. Particulars: CCF2-FA fluorescence assay, 2 hours at 25° C. In kind it is biochemical. An outline of the steps:
(§1)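 Enzyme (NDM-1 1 pM, IMP-1 2 pM, VIM-1 30 pM final) and 1.25 μM CCF2-FA incubated with inhibitor (20 to 0.00063 μM) for 2 h at 25° C in 100 mM KH2PO4 pH 7, 0.005% Tween-20, 10 μM ZnSO4. Fluorescence read at ex 405/em 460 nm; IC50 by 4-parameter fit.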

In the next data set the target is VIM-2 (Escherichia coli, UniProt Q5U7L7). Nature of the data set: biochemical. The note with it: CCF2-FA fluorescence assay; read-out: VIM2 IC50.
Data set [1] deals with P. aeruginosa MB9798 (efflux+, IMP-1 plasmid). The note with it: for MB9798 MITC95 P. aeruginosa uM Efflux WT: efflux + (MB9798) strain, imipenem at 2 μg/mL, in the presence of a class A, C, D serine β-lactamase inhibitor closely related to relebactam; for Efflux ratio: fold difference between efflux+ (MB9798) and efflux− (MB9799) strains. In a few lines: (§2)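 Isogenic P. aeruginosa PAO1 strains (efflux+ and multiple-efflux-pump-disrupted) carrying plasmid IMP-1, with inducible AmpC, tested by broth microdilution. Imipenem and/or ceftazidime fixed, usually at CLSI breakpoint, plus fixed class A/C β-lactamase inhibitor; titrated MBL inhibitor concentration restoring susceptibility recorded and compared between strains as efflux fold difference.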

A further data set deals with IMP-1 (Serratia marcescens, UniProt P52699). Kind of data set: biochemical. Particulars: CCF2-FA fluorescence assay, 2 hours at 25° C.; read-out: IMP1 IC50. In a few lines:
as §1

A further data set concerns the target VIM-1 (Pseudomonas aeruginosa (strain ATCC 15692 / DSM 22644 / CIP 104116 / JCM 14847 / LMG 12228 / 1C / PRS 101 / PAO1), UniProt A0A0F7KYQ8). Kind of data set: biochemical. Particulars: CCF2-FA fluorescence assay, 2 hours at 25° C.; read-out: VIM1 IC50. An outline of the steps:
as §1

Data set [2] deals with Escherichia coli expressing NDM-1 (CLB30016). Format: cell-based. Particulars: with imipenem 1 μg/ml; 95% inhibition of bacterial growth. An outline of the steps:
(§3)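 Read-out is absorbance after 22–24 h at 35 °C, with MITC95 taken as the lowest inhibitor concentration that, alongside imipenem at 1 μg/ml, suppresses 95% of bacterial growth. Inocula came from saline-suspended colonies diluted 1:100 into 1.1× CAMHB.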

The test system of data set [3] is Serratia marcescens expressing IMP-1 (CL5741). Format: cell-based. Particulars: with imipenem 1 μg/ml; 95% inhibition of bacterial growth. In a few lines:
as §3

The subject of data set [4] is Klebsiella pneumoniae expressing VIM-1 (IHMA599644). Format: cell-based. Particulars: with imipenem 1 μg/ml; 95% inhibition of bacterial growth. In a few lines: as §3
The test system of data set [5] is P. aeruginosa MB9799 (efflux-, IMP-1 plasmid). Format: cell-based, Pseudomonas aeruginosa. The note with it: efflux − (MB9799) strain; imipenem at 2 μg/mL; in the presence of a class A, C, D serine β-lactamase inhibitor closely related to relebactam. An outline of the steps: as §2

NDM-1, sequence (C7C422 whole entry, looked up, species assumed): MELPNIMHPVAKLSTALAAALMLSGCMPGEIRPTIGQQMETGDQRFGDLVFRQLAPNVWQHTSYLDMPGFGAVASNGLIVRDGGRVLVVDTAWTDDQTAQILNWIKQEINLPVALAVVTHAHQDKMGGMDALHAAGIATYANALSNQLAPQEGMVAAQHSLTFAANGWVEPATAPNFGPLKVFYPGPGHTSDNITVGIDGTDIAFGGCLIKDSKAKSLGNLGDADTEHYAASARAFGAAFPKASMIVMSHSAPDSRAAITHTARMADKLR
IMP-1, sequence (P52699 whole entry, looked up, species assumed): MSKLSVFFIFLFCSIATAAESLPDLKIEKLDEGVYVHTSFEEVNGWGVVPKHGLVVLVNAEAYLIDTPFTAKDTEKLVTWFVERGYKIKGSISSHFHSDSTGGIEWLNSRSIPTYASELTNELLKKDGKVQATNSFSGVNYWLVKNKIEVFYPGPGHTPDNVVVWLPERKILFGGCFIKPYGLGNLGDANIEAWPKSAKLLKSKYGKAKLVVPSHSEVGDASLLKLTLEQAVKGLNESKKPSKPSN

In general, pIC50 refers to −log10 of the IC50, conventionally taken in molar units. Regarding `NS(=O)(=O)c1c(S(=O)(=O)C2CNC2)ccc(N2C[C@H](O)C[C@@H](O)C2)c1-c1nnn[nH]1` [Example 55, 6-(azetidin-3-ylsulfonyl)-3-[(3R,5R)-3,5-dihydroxypiperidin-1-yl]-2-(1H-tetrazol-5-yl)benzenesulfonamide], the pIC50 against NDM-1 is 7.29; on VIM-2, 6.84; on IMP-1, 6.70; on VIM-1 it was 7.21. In addition, the “MB9798 MITC95 P. aeruginosa uM Efflux WT” value in data set [1] came to 100.00 µM. Besides, the Efflux ratio in data set [1] stood at 16.00. In [2], the “CLB30016 E. coli MITC95 NDM” value was 1.56 µM. Moreover, the “CL5741 S. marcescens MITC95 IMP” value in data set [3] came out at 12.50 µM. Moreover, in data set [4], the “IHMA599644 K. pneumoniae MITC95 VIM” value worked out at 12.50 µM. In addition, the “MB9799 MITC95 P. aeruginosa uM Efflux Mutant” value in data set [5] came to 6.25 µM.
For `NS(=O)(=O)c1c(S(=O)(=O)C2CNC2)ccc(N2CC3C(CO)C3C2)c1-c1nnn[nH]1` (stereo not shown) [Example 62, 6-(azetidin-3-ylsulfonyl)-3-[6-(hydroxymethyl)-3-azabicyclo[3.1.0]hex-3-yl]-2-(1H-tetrazol-5-yl)benzenesulfonamide], the pIC50 at NDM-1 was 8.54; on VIM-2, 7.98; at IMP-1 it was 8.31; on VIM-1 it was 8.51. Also, the “MB9798 MITC95 P. aeruginosa uM Efflux WT” value in data set [1] was found to be 50.00 µM. For the same compound, the Efflux ratio in data set [1] is 31.99. Further, the “CLB30016 E. coli MITC95 NDM” value in data set [2] is 1.56 µM. Besides, the “CL5741 S. marcescens MITC95 IMP” value in data set [3] was found to be 3.13 µM. In addition, the “IHMA599644 K. pneumoniae MITC95 VIM” value in data set [4] came out at 6.25 µM. Besides, the “MB9799 MITC95 P. aeruginosa uM Efflux Mutant” value in data set [5] was 1.56 µM.
For the compound `NC[C@@H](O)CNS(=O)(=O)c1ccc(N2CCCN(CCO)CC2)c(-c2nn[nH]n2)c1S(N)(=O)=O` [Example 23, (R)-N^1-(3-amino-2-hydroxypropyl)-4-(4-(2-hydroxyethyl)-1,4-diazepan-1-yl)-3-(2H-tetrazol-5-yl)benzene-1,2-disulfonamide], the pIC50 was 7.71 at NDM-1, 8.00 at VIM-2, 7.39 at IMP-1 and 8.83 at VIM-1. Besides, the “MB9798 MITC95 P. aeruginosa uM Efflux WT” value in [1] is 3.13 µM. For the same compound, the Efflux ratio in data set [1] is listed as 2.00. Besides, in data set [2], the “CLB30016 E. coli MITC95 NDM” value came to 0.39 µM. Besides, the “CL5741 S. marcescens MITC95 IMP” value in data set [3] was 1.56 µM. Further, in data set [4], the “IHMA599644 K. pneumoniae MITC95 VIM” value is 0.78 µM. Besides, the “MB9799 MITC95 P. aeruginosa uM Efflux Mutant” value in data set [5] amounted to 1.56 µM.
Consider `NS(=O)(=O)c1c(S(=O)(=O)N[C@@H]2CCNC2)ccc(N2CC[C@H](CO)C2)c1-c1nnn[nH]1` [Example 96, 4-[(3S)-3-(hydroxymethyl)pyrrolidin-1-yl]-N1-[(3R)-pyrrolidin-3-yl]-3-(1H-tetrazol-5-yl)benzene-1,2-disulfonamide], for which the pIC50 was 8.92 at NDM-1, 8.99 at VIM-2, 9.01 on IMP-1 and 9.28 on VIM-1. Besides, in [1], the “MB9798 MITC95 P. aeruginosa uM Efflux WT” value stood at 3.13 µM. Moreover, the Efflux ratio in [1] is listed as 2.00. The “CLB30016 E. coli MITC95 NDM” value in data set [2] was 3.13 µM. In addition, in [3], the “CL5741 S. marcescens MITC95 IMP” value came to 1.56 µM. For the same compound, the “IHMA599644 K. pneumoniae MITC95 VIM” value in data set [4] worked out at 6.25 µM. Moreover, the “MB9799 MITC95 P. aeruginosa uM Efflux Mutant” value in [5] stood at 1.56 µM.
Turning to `CC1(O)CCCN(c2ccc(S(=O)(=O)C3CNC3)c(S(N)(=O)=O)c2-c2nnn[nH]2)C1` (stereo not shown) [Example 59, 6-(azetidin-3-ylsulfonyl)-3-(3-hydroxy-3-methylpiperidin-1-yl)-2-(1H-tetrazol-5-yl)benzenesulfonamide], the pIC50 is 8.49 against NDM-1, 8.66 at VIM-2, 8.08 on IMP-1 and 8.74 at VIM-1. The “MB9798 MITC95 P. aeruginosa uM Efflux WT” value in data set [1] amounted to 50.00 µM. Besides, the Efflux ratio in data set [1] is reported as 16.00. Besides, the “CLB30016 E. coli MITC95 NDM” value in data set [2] worked out at 6.25 µM. The “CL5741 S. marcescens MITC95 IMP” value in data set [3] was found to be 6.25 µM. The “IHMA599644 K. pneumoniae MITC95 VIM” value in data set [4] turned out to be 6.25 µM. Besides, the “MB9799 MITC95 P. aeruginosa uM Efflux Mutant” value in data set [5] turned out to be 3.13 µM.
Consider `NCC1CCN(c2ccc(S(=O)(=O)N[C@@H]3CCNC3)c(S(N)(=O)=O)c2-c2nnn[nH]2)CC1` [Example 77, 4-[4-(aminomethyl)piperidin-1-yl]-N1-[(3R)-pyrrolidin-3-yl]-3-(1H-tetrazol-5-yl)benzene-1,2-disulfonamide], for which the pIC50 on NDM-1 is 9.28; at VIM-2, 8.74; on IMP-1 it was 8.74; on VIM-1, 9.96. In data set [1], the “MB9798 MITC95 P. aeruginosa uM Efflux WT” value is 0.78 µM. In [1], the Efflux ratio amounted to 2.00. Further, in data set [2], the “CLB30016 E. coli MITC95 NDM” value stood at 0.78 µM. In addition, the “CL5741 S. marcescens MITC95 IMP” value in data set [3] turned out to be 0.78 µM. The “IHMA599644 K. pneumoniae MITC95 VIM” value in data set [4] was 0.78 µM. Further, the “MB9799 MITC95 P. aeruginosa uM Efflux Mutant” value in data set [5] was found to be 0.39 µM.
`NC[C@@H](O)CNS(=O)(=O)c1ccc(N[C@H]2C[C@@H](N)C2)c(-c2nnn[nH]2)c1S(N)(=O)=O` [Example 143, N1-((R)-3-amino-2-hydroxypropyl)-4-(((1s,3S)-3-aminocyclobutyl)amino)-3-(1H-tetrazol-5-yl)benzene-1,2-disulfonamide]: the pIC50 was 6.95 against NDM-1, 6.70 on VIM-2, 7.15 at IMP-1 and 7.00 at VIM-1. Further, the “MB9798 MITC95 P. aeruginosa uM Efflux WT” value in data set [1] amounted to 6.25 µM. In addition, the Efflux ratio in [1] was determined as 2.00. Moreover, in data set [2], the “CLB30016 E. coli MITC95 NDM” value came to 1.56 µM. Besides, the “CL5741 S. marcescens MITC95 IMP” value in [3] worked out at 1.56 µM. For the same compound, the “IHMA599644 K. pneumoniae MITC95 VIM” value in data set [4] was found to be 12.50 µM. Further, the “MB9799 MITC95 P. aeruginosa uM Efflux Mutant” value in [5] is 3.13 µM.
For the compound `C[C@H](CN)NS(=O)(=O)c1ccc(N2CC[C@@H](N)[C@@H](F)C2)c(-c2nn[nH]n2)c1S(N)(=O)=O` (racemic) [Example 5], the pIC50 against NDM-1 was 9.02; at VIM-2 it was 8.60; at IMP-1, 8.74; at VIM-1, 9.89. For the same compound, in data set [1], the “MB9798 MITC95 P. aeruginosa uM Efflux WT” value was 0.78 µM. Also, the Efflux ratio in [1] amounted to 2.00. In addition, the “CLB30016 E. coli MITC95 NDM” value in [2] stood at 0.10 µM. The “CL5741 S. marcescens MITC95 IMP” value in data set [3] was determined as 0.20 µM. Further, the “IHMA599644 K. pneumoniae MITC95 VIM” value in [4] was determined as 0.78 µM. In [5], the “MB9799 MITC95 P. aeruginosa uM Efflux Mutant” value is 0.39 µM.
With `NS(=O)(=O)c1c(S(=O)(=O)C2CNC2)ccc(N2CCC(CO)CC2)c1-c1nnn[nH]1` [Example 58, 6-(azetidin-3-ylsulfonyl)-3-[4-(hydroxymethyl)piperidin-1-yl]-2-(1H-tetrazol-5-yl)benzenesulfonamide], the negative logarithm of the IC50 (pIC50) at NDM-1 is 8.99; at VIM-2, 8.78; at IMP-1, 9.07; on VIM-1, 9.38. Also, the “MB9798 MITC95 P. aeruginosa uM Efflux WT” value in [1] came out at 6.25 µM. The Efflux ratio in data set [1] turned out to be 4.00. Besides, in data set [2], the “CLB30016 E. coli MITC95 NDM” value is 3.13 µM. Also, in [3], the “CL5741 S. marcescens MITC95 IMP” value came to 6.25 µM. In data set [4], the “IHMA599644 K. pneumoniae MITC95 VIM” value was 6.25 µM. Also, the “MB9799 MITC95 P. aeruginosa uM Efflux Mutant” value in data set [5] was determined as 1.56 µM.
`NC[C@@H](O)CNS(=O)(=O)c1ccc(N2CCC(C(N)=O)C2)c(-c2nn[nH]n2)c1S(N)(=O)=O` (stereo partly drawn) [Example 118, 1-(4-(N—((R)-3-amino-2-hydroxypropyl)sulfamoyl)-3-sulfamoyl-2-(2H-tetrazol-5-yl)phenyl)pyrrolidine-3-carboxamide]: the pIC50 against NDM-1 is 8.81; on VIM-2, 8.61; at IMP-1, 8.90; at VIM-1, 8.92. Moreover, the “MB9798 MITC95 P. aeruginosa uM Efflux WT” value in data set [1] is 1.56 µM. Besides, the Efflux ratio in data set [1] is recorded as 1.00. In addition, the “CLB30016 E. coli MITC95 NDM” value in data set [2] is 1.56 µM. Further, the “CL5741 S. marcescens MITC95 IMP” value in data set [3] was 1.56 µM. Also, in [4], the “IHMA599644 K. pneumoniae MITC95 VIM” value is 3.13 µM. Also, the “MB9799 MITC95 P. aeruginosa uM Efflux Mutant” value in data set [5] is 1.56 µM.
